Tests used:
Solubility in PBS = format: physicochemical
IKK-complex = target: T1, IKK-complex (Homo sapiens, UniProt O14920+O15111+Q9Y6K9); test: Cellular IKK kinase assay: HeLa cells treated with compound, TNF alpha stimulation, IKK-complex immunoprecipitated with anti-NEMO-antibody, I kappaB peptide phosphorylation by alpha screen; format: cell-based; conditions: HeLa cells, compound 1 h, TNF alpha 20 ng/ml, alpha screen; read-out: IC50 for inhibition of IKK-activity (I kappaB peptide phosphorylation)
T1 construct: IKK-complex was immunoprecipitated with anti-NEMO-antibody; endogenous in cells; host or cells: HeLa
Description: Kinase Assay Protocol: HeLa cells were maintained in Dulbecco's modified Eagle's medium (Invitrogen) supplemented with 10% fetal bovine serum, 2 mM L-glutamine, penicillin (50 units/ml) and streptomycin (50 μg/ml). 24 h before treatment with different compounds HeLa cells were plated at a density of 5×10^6 per well in 100-mm cell culture dishes to 90% confluences.
The cells were incubated with different drugs at the concentration indicated for 1 h, washed twice with PBS and stimulated with 20 ng/ml TNF alpha (Roche). After 7 min the cells were washed twice with ice cold PBS followed by scraping and transferring into a 1.5 ml microcentrifuge tube. After centrifugation by 2000 rpm for 2 min by 4° C. the PBS supernatant was removed and 200 μl Lyse-buffer (10 mM Hepes, pH 7.9, 0.1% NP40, 10 mM, 300 mM Sucrose, 10 mM KCl, 15 mM MgCl2, 1 mM DTT, 0.5 mM PMSF and antipain, aprotinin, leupeptin each 0.75 μg/ml (Sigma) was added to the pellet. The resuspended pellet was incubated on ice for 5 min and centrifuged at 13000 g for 30 s. The supernatant, cytosolic extract, was added to 200 μl TNT-buffer (200 mM NaCl, 20 mM Tris/HCl pH 7.5, 1% Triton X-100). Unspecific binding was blocked by incubation with 3 μg of normal rabbit IgG (Sigma) and 6 mg resuspended and prewashed Protein A Sepharose CI-4B (Pharmacia Biotech) for 30 min by 4° C. followed by immunoprecipitation for 1.5 h at 4° C. with 2 μg of anti-NEMO-antibody (Santa Cruz Biotechnology) and 6 mg resuspented and prewashed Protein A Sepharose CI-4B (Parmacia Biotech). […] 6.6 μl of detection-buffer (20 mM Hepes pH 7.5, 100 mM NaCl, 1% Tween, 0.1 mM BSA, 50 μg/ml Protein A-Acceptor beads, 250 μg/ml Streptavidin-Donor beads (both Perkin-Elmer), 4 nM anti-phospho-IKB antibody (Santa Cruz Biotechnology) was dispensed to each well. After incubation for 1.5 h the plate was measured by alpha screen reader (Perkin Elmer). […]

T1 sequence (O14920 whole entry): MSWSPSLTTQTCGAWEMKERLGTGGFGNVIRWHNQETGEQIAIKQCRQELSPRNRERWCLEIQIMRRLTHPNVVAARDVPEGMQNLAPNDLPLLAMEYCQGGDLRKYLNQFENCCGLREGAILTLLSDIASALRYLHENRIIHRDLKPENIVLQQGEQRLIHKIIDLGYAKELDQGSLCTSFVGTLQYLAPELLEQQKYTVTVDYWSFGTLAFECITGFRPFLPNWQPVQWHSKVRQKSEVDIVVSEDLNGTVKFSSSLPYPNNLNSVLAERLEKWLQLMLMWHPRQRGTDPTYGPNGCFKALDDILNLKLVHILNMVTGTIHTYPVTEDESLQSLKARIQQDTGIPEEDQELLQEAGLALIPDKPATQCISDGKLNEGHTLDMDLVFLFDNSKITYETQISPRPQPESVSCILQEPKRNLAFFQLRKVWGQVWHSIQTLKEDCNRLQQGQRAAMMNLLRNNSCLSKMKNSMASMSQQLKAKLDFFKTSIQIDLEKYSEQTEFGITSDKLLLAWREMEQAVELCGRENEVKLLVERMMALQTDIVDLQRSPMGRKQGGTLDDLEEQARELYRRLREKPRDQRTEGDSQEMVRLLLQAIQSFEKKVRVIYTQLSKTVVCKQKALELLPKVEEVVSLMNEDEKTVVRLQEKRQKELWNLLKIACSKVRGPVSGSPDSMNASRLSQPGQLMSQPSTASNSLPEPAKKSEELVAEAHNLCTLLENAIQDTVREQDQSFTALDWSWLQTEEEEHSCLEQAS
T1 sequence (O15111 whole entry): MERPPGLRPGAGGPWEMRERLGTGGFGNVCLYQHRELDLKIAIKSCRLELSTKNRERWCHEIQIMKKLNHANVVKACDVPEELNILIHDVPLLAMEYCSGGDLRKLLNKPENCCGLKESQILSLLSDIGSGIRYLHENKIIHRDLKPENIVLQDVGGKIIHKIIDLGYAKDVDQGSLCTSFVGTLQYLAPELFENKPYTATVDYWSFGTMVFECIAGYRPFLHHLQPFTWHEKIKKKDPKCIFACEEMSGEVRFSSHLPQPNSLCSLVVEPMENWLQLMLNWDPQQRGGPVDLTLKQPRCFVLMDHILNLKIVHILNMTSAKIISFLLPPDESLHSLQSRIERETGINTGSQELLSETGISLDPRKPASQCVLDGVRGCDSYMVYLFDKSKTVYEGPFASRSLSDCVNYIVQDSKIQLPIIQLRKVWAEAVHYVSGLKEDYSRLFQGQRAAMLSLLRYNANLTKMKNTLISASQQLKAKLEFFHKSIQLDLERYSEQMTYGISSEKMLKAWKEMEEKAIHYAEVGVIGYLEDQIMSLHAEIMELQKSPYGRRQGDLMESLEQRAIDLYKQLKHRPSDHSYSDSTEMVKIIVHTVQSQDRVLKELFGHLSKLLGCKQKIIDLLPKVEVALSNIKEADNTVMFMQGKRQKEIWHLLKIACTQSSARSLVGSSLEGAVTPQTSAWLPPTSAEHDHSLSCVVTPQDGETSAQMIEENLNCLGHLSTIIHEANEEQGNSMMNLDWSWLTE
T1 sequence (Q9Y6K9 whole entry): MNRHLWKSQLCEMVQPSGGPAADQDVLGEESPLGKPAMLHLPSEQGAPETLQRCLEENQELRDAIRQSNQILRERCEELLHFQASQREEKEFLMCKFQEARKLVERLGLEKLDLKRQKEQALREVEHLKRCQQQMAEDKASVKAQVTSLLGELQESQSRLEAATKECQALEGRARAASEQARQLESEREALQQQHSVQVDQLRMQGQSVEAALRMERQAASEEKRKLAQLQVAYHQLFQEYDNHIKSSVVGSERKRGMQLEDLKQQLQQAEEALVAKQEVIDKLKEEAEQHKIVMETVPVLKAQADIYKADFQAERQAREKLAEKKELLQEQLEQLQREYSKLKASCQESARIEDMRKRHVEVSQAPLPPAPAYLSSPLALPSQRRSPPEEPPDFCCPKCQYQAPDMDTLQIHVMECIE

solubility in PBS (Solubility in PBS): only partly soluble
IC50 (IKK-complex): 10 to 100 µM
SMILES: CCC(=O)C1=C(C)N=c2s/c(=C/c3cc(C)c(OCc4ccccc4Cl)c(I)c3)c(=O)n2C1c1ccc2c(c1)OCO2 (centres unmarked) [Compound 41]

Reference: US20060194819A1, “Activation specific inhibitors of nf-kb and method of treating inflammatory processes in cardio-vascular diseases” (PROCORDE GMBH, priority 2003, published 2006)
